Patent US20170298406A1, “SALT OF PHENYLGLYCINE METHYL ESTER” (DSM Sinochem Pharmaceuticals Netherlands B.V., priority 2014, published 2017)
Where a name gives a salt, the structure may show the parent alone.

Test: Solubility of (PGMH)2SO4 in water as a function of temperature (HPLC of filtered supernatant)
Type: physicochemical
Conditions: filtrate by HPLC
Text: In the preparation of (PGMH)2SO4 as described in Example 2 separation of the organic phase at pH=4.2 is done while (PGMH)2SO4 is supersaturated. At some point in time, crystallization may start before the organic layer is separated from the aqueous phase. In order to design a process that will avoid crystallization of (PGMH)2SO4 in the presence of organic solvent, and controlled crystallization after separation of the organic phase, solubility of (PGMH)2SO4 as a function of temperature was investigated. The hemi sulfuric acid salt of D-phenylglycine methyl ester (1 g), obtained as described in Example 2 was mixed with water (2 g) at 20° C. and the solid material dissolved. Additional hemi sulfuric acid salt of D-phenylglycine methyl ester (1 g) was added and the mixture was agitated at 20° C. for 25 minutes. Not all solid was dissolved. An aliquot of approximately 0.5 mL of supernatant was filtered, and in the filtrate the concentration of hemi sulfuric acid salt of D-phenylglycine methyl ester was determined by HPLC. The rest of the mixture was stirred at 3° C. Water (2 mL) was added to allow mixing. […] An aliquot of approximately 0.5 mL of supernatant was filtered and in the filtrate the concentration of hemi sulfuric acid salt of D-phenylglycine methyl ester was determined by HPLC.

SMILES: COC(=O)[C@H](N)c1ccccc1 [hemi sulfuric acid salt of D-phenylglycine methyl ester]
- Solubility in water: hemi sulfuric acid salt of D-phenylglycine methyl ester (g)/kg of solution (T 3 °C, agitated 30 minutes): 268 g/kg of solution
- Solubility in water: hemi sulfuric acid salt of D-phenylglycine methyl ester (g)/kg of solution (T 20 °C, agitated 25 minutes): 478 g/kg of solution
